Tests used:
Format in all cases: cell-based
[1] = system: human umbilical-vein endothelial cells (HUVEC); experiment: Cell Migration Assay (CMA) Test, HUVEC (% relative to control); conditions: 24 hours, 60% or less = remarkable inhibition; for activity at 1 µg/mL / activity at 10 µg/mL: Homo sapiens, HUVEC, read-out: CMA (% relative to control)
Procedure, shortened: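 Confluent 7th-subculture HUVEC monolayers scraped with razor blade, then given M199 (2+) plus 40 or 4 μl of 1 mg/ml sample (in 5% DMSO-PBS) per 4.0 ml medium for 24 h at 37 °C. Methanol-fixed, Giemsa-stained; newly migrated cells counted microscopically in 1 mm×1 mm blocks, expressed versus M199 (2+) control.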

[2] = system: human umbilical-vein endothelial cells (HUVEC); experiment: Cell Proliferation Assay (CPA) Test, HUVEC, MTT; conditions: M199 (2+) medium; for IC50: Homo sapiens, read-out: CPA (IC50 μg/ml)
Procedure, shortened: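 HUVEC (7th subculture) seeded at 5×10^4 cells/ml in M-199 with 20% FCS, 10 ng/ml b-FGF and 10 ng/ml EGF, grown 24 h at 37 °C, 5% CO2. Compounds added from 1 mg/ml or 0.1 mg/ml samples in 5% DMSO-PBS(−), renewed with medium after 24 h, then cultured 48 h more. Read-out by MTT with 4 h incubation and SDS/HCl stop.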

[3] = system: human umbilical-vein endothelial cells (HUVEC); experiment: Tube Formation Assay (TFA) Test, HUVEC in collagen gel; conditions: 20 hours, 40% or less judged remarkable; for inhibition at 1 µg/mL / inhibition at 10 µg/mL: Homo sapiens, HUVEC, 20 h, read-out: TFA (inhibition rate, %)
Procedure, shortened: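 Inhibition rate (%) of tube formation is computed from tube lengths against control (+) and control (-), measured after 20 h at 37 °C in M-199 with 20% FCS, 30 ng/ml b-FGF and 0.1 μM PMA. Samples were applied to HUVEC on collagen and covered by a second collagen layer (double-layer gel).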

Row | Molecule | activity at 1 µg/mL ([1]; 1 μg/ml) | activity at 10 µg/mL ([1]; 10 μg/ml) | IC50 [2] | inhibition at 1 µg/mL ([3]; 1 μg/ml) | inhibition at 10 µg/mL ([3]; 10 μg/ml) | CMA (% relative to control) ([1]; 1 μg/ml) | CMA (% relative to control) ([1]; 10 μg/ml) | CPA (IC50 μg/ml) [2] | TFA (inhibition rate, %) ([3]; 1 μg/ml) | TFA (inhibition rate, %) ([3]; 10 μg/ml)
1 | CNC(=O)O[C@@H]1OC=C(C(=O)OC)[C@H]2CC[C@@]3(CO3)[C@@H]12 [compound 52, (1S,4aS,7R,7aR)-1-(methylcarbamoyloxy)-1,4a,5,6,7,7a-hexahydrospiro [cyclopenta [c]pyrane-7(1H),2'-oxirane]-4-carboxylic acid methylester] | 101% | 103% | > 100 µg/mL | 21.7% | -6.5% | – | – | – | – | –
2 | CNC(=O)O[C@@H]1OC=C(C(=O)OC)[C@H]2CC[C@]3(CO3)[C@@H]12 [compound 53, (1S,4aS,7S,7aR)-1-(methylcarbamoyloxy)-1,4a,5,6,7,7a-hexahydrospiro [cyclopenta [c]pyrane-7(1H),2'-oxirane]-4-carboxylic acid methylester] | 100% | 94.1% | > 100 µg/mL | 26% | 9.7% | – | – | – | – | –
3 | CNC(=O)OC=C(C(=O)OC)[C@@H]1CC[C@]2(C)O[C@@]12CO [compound 54, 2-[(1S,2R,3S)-2,3-epoxy-2-(hydroxymethyl)-3-methyl-2-cyclopentyl]-3-[(methylcarbamoyl)oxy] methylacrylate] | – | – | – | – | – | 90.5% | 86.2% | > 100.0 µg/mL | -8.6% | -12.2%
4 | Protamine [reference compound] | – | – | – | – | – | 69.2% | 50.0% | 52.7 µg/mL | 41.0% | 25.4%
